Measured values taken from patent publication US12077555B2, “STAT degraders and uses thereof” (Kymera Therapeutics, Inc., priority 2019, dated 2024).
Where two headings read alike, the source gives them in different places.

Target: STAT3 (Homo sapiens, UniProt P40763)
Assay: STAT3 HiBiT degradation assay in transfected A549 cells
Format: cell-based
Parameters: expressed in transfected cells; host or cells: A549
Method in brief: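 Degradation read as HiBiT-tagged STAT3 luminescence (Nano-Glo lytic reagent, 10 min, room temperature) following 24 h compound treatment of transfected A549 cells at 3-fold, 10 points. Percent remaining signal computed against controls and fitted with a four-parameter logistic; DC50 reported as letter bins (A <0.01 to D >1.0 µM).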

[1] = A549, 24 h; read-out: STAT3 HiBiT A549 degradation 24 h: Average external-Abs DC50

Chain of STAT3 (P40763 whole entry): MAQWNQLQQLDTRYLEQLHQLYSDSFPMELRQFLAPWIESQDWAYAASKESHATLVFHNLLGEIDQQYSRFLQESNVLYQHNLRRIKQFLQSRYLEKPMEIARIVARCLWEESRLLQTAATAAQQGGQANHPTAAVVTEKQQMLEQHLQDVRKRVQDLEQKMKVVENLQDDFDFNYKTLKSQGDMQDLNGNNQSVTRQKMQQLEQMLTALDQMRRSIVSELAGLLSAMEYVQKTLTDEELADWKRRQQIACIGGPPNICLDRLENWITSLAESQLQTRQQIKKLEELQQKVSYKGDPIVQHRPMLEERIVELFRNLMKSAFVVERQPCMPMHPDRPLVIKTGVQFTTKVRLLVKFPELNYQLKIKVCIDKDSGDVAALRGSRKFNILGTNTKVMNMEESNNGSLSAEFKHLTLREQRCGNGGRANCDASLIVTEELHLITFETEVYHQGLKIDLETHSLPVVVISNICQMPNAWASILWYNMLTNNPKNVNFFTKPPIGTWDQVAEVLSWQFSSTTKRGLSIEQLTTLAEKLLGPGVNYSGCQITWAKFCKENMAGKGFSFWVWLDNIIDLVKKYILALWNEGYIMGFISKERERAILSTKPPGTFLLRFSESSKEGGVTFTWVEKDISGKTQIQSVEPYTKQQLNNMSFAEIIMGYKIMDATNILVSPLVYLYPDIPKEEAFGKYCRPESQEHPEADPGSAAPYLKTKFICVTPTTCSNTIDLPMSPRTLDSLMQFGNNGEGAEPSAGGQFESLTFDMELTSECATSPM

Row | Structure (SMILES) | DC50 [1] | DC50 (read-out: STAT3 HiBiT A549 degradation 24 h: Average external-Abs DC50; A549, 24 h)
1 | Cc1ncsc1-c1ccc(CNC(=O)[C@@H]2C[C@@H](O)CN2C(=O)[C@@H](NC(=O)CCCCCc2cccc(CNC(=O)[C@H](CCC(N)=O)NC(=O)[C@@H]3Cc4cccc5c4N3C(=O)[C@@H](NC(=O)c3cc4cc(C(=O)P(=O)(O)O)ccc4[nH]3)CC5)c2)C(C)(C)C)cc1 [Compound I-222, 2-[[(2S,11S)-2-[[(1S)-3-carbamoyl-1--([[3-(5-[[(2S)-1-[(2S,4R)-4-hydroxy-2-([[4-(4-methyl-1,3-thiazol-5-yl)phenyl]methyl]carbamoyl)pyrrolidin-1-yl]-3,3-dimethyl-1-oxobutan-2-yl]carbamoyl]pentyl)phenyl]methyl]carbamoyl)propyl]carbamoyl]-12-oxo-1-azatricyclo[6.4.1.0^[4,13]]trideca-4(13),5,7-trien-11-yl]carbamoyl]-1H-indole-5-carbonylphosphonic acid] | > 1000 nM | 
2 | Cc1ncsc1-c1ccc(CNC(=O)[C@@H]2C[C@@H](O)CN2C(=O)[C@@H](NC(=O)C2(CCCc3ccc(CO[C@H](C)[C@H](CCC(N)=O)NC(=O)[C@@H]4Cc5cccc6c5N4C(=O)[C@@H](NC(=O)c4cc5cc(C(=O)P(=O)(O)O)ccc5[nH]4)CC6)cc3)CC2)C(C)(C)C)cc1 [Compound I-223, diammonium 2-[[(2S,11S)-2-[[(3S,4R)-1-carbamoyl-4-([4-[3-(1-[[(2S)-1-[(2S,4R)-4-hydroxy-2-([[4-(4-methyl-1,3-thiazol-5-yl)phenyl]methyl]carbamoyl)pyrrolidin-1-yl]-3,3-dimethyl-1-oxobutan-2-yl]carbamoyl]cyclopropyl)propyl]phenyl]methoxy)pentan-3-yl]carbamoyl]-12-oxo-1-azatricyclo[6.4.1.0^[4,13]]trideca-4(13),5,7-trien-11-yl]carbamoyl]-1H-indole-5-carbonylphosphonate] | 100 to 1000 nM | 
3 | Cc1ncsc1-c1ccc(CNC(=O)[C@@H]2C[C@@H](O)CN2C(=O)[C@@H](NC(=O)CCCCCc2cccc(CC[C@H](CCC(N)=O)NC(=O)[C@@H]3Cc4cccc5c4N3C(=O)[C@@H](NC(=O)c3cc4cc(C(=O)P(=O)(O)O)ccc4[nH]3)CC5)c2)C(C)(C)C)cc1 [Compound I-224, diammonium 2-[[(2S,11S)-2-[[(3R)-1-carbamoyl-5-[3-[5-[[(2S)-1-[(2S,4R)-4-hydroxy-2-([[4-(4-methyl-1,3-thiazo1-5-yl)phenyl]methyl]carbamoyl)pyrrolidin-1-yl]-3,3-dimethyl-1-oxobutan-2-yl]carbamoyl]pentyl)phenyl]pentan-3-yl]carbamoyl]-12-oxo-1-azatricyclo[6.4.1.0^[4,13]]trideca-4(13),5,7-trien-11-yl]carbamoyl]-1H-indole-5-carbonylpho sphonate] | > 1000 nM | 
4 | Cc1ncsc1-c1ccc([C@H](C)NC(=O)[C@@H]2C[C@@H](O)CN2C(=O)[C@@H](NC(=O)CCCCc2ccc(CO[C@H](C)[C@H](CCC(N)=O)NC(=O)[C@@H]3Cc4cccc5c4N3C(=O)[C@@H](NC(=O)c3cc4cc(C(=O)P(=O)(O)O)ccc4[nH]3)CC5)c(F)c2)C(C)(C)C)cc1 [Compound I-225, diammonium 2-[[(2S,11S)-2-[[(3S,4R)-1-carbamoyl-4-[[2-fluoro-4-(4-[[(2S)-1-[(2S,4R)-4-hydroxy-2-[[(1S)-1-[4-(4-methyl-1,3-thiazol-5-yl)phenyl]ethyl]carbamoyl]pyrrolidin-1-yl]-3,3-dimethyl-1-oxobutan-2-yl]carbamoyl]butyl)phenyl]methoxy]pentan-3-yl]carbamoyl]-12-oxo-1-azatricyclo[6.4.1.0^[4,13]]trideca-4(13),5,7-trien-11-yl]carbamoyl]-1H-indole-5-carbonylphosphonate] | 100 to 1000 nM | 
5 | Cc1cc(CCCCC(=O)N[C@H](C(=O)N2C[C@H](O)C[C@H]2C(=O)N[C@@H](C)c2ccc(-c3scnc3C)cc2)C(C)(C)C)ccc1CO[C@H](C)[C@H](CCC(N)=O)NC(=O)[C@@H]1Cc2cccc3c2N1C(=O)[C@@H](NC(=O)c1cc2cc(C(=O)P(=O)(O)O)ccc2[nH]1)CC3 [Compound I-226, 2-[[(2S,11S)-2-[[(3S,4R)-1-carbamoyl-4-[[4-(4-[[(2S)-1-[(2S,4R)-4-hydroxy-2-[[(1S)-1-[4-(4-methyl-1,3-thiazol-5-yl)phenyl]ethyl]carbamoyl]pyrrolidin-1-yl]-3,3-dimethyl-1-oxobutan-2-yl]carbamoyl]butyl)-2-methylphenyl]methoxy]pentan-3-yl]carbamoyl]-12-oxo-1-azatricyclo[6.4.1.0^[4,13]]trideca-4(13),5,7-trien-11-yl]carbamoyl]-1H-indole-5-carbonylphosphonic acid] | 10 to 100 nM | 
6 | Cc1ncsc1-c1ccc([C@H](C)NC(=O)[C@@H]2C[C@@H](O)CN2C(=O)[C@@H](NC(=O)CCCCc2ccc(CO[C@H](C)[C@H](CCC(N)=O)NC(=O)[C@@H]3Cc4cccc5c4N3C(=O)[C@@H](NC(=O)c3cc4cc(C(=O)P(=O)(O)O)ccc4[nH]3)CC5)cc2)C(C)(C)C)cc1 [Compound I-227] | 100 to 1000 nM | 
7 | Cn1c(=O)n(C2CCC(=O)NC2=O)c2ccc(C3CC(CCCC(=O)N4CC[C@H]5CC[C@@H](C(=O)N[C@@H](CCC(N)=O)C(=O)NC(c6ccccc6)c6ccccc6)N5C(=O)[C@@H](NC(=O)c5cc6cc(C(=O)P(=O)(O)O)ccc6[nH]5)C4)C3)cc21 (stereo partly drawn) [Compound I-228, 2-[[(5S,8S,10aR)-8-[[(1S)-3-carbamoyl-1-(diphenylmethylcarbamoyl)propyl]carbamoyl]-3-(4-[3-[1-(2,6-dioxopiperidin-3-yl)-3-methyl-2-oxo-1,3-benzodiazol-5-yl]cyclobutyl]butanoyl)-6-oxo-octahydropyrrolo[1,2-a][1,5]diazocin-5-yl]carbamoyl]-1H-indole-5-carbonylphosphonic acid] | 100 to 1000 nM | 
8 | Cn1c(=O)n(C2CCC(=O)NC2=O)c2ccc(CCCCCCc3cc4c5c(c3)C[C@@H](C(=O)N[C@@H](CCC(N)=O)C(=O)NC(c3ccccc3)c3ccccc3)N5C(=O)[C@@H](NC(=O)c3cc5cc(C(=O)P(=O)(O)O)ccc5[nH]3)CC4)cc21 (stereo partly drawn) [Compound I-229, 2-[[(2S,11S)-2-[[(1S)-3-carbamoyl-1-(diphenylmethylcarbamoyl)propyl]carbamoyl]-6-[6-[1-(2,6-dioxopiperidin-3-yl)-3-methyl-2-oxo-1,3-benzodiazol-5-yl]hexyl]-12-oxo-1-azatricyclo[6.4.1.0 [4,13]]-trideca-4(13),5,7-trien-11-yl]carbamoyl]-1H-indole-5-carbonylphosphonic acid] | 10 to 100 nM | 
9 | Cn1c(=O)n(C2CCC(=O)NC2=O)c2ccc(CC3CCC(CC(=O)N4CC[C@H]5CC[C@@H](C(=O)N[C@H](CCC(N)=O)C(=O)NCc6ccc(S(C)(=O)=O)cc6)N5C(=O)[C@@H](NC(=O)c5cc6cc(C(=O)P(=O)(O)O)ccc6[nH]5)C4)CC3)cc21 (stereo partly drawn) [Compound I-230, 2-[[(5S,8S,10aR)-8-[[(1R)-3-carbamoyl-1-[[(4-methanesulfonylphenyl)methyl]carbamoyl]propyl]carbamoyl]-6-oxo-3-[2-[(1S,4S)-4-[[1-(2,6-dioxopiperidin-3-yl)-3-methyl-2-oxo-1,3-benzodiazol-5-yl]methyl]cyclohexyl]acetyl]-octahydropyrrolo[1,2-a][1,5]diazocin-5-yl]carbamoyl]-1H-indole-5-carbonylphosphonic acid] | > 1000 nM | 
10 | CC(=O)N1CC[C@H]2CC[C@@H](C(=O)N[C@@H](CCC(N)=O)COc3cccc(CCCC(=O)N[C@H](C(=O)N4C[C@H](O)C[C@H]4C(=O)N[C@@H](C)c4ccc(-c5scnc5C)cc4)C(C)(C)C)c3F)N2C(=O)[C@@H](NC(=O)c2cc3cc(C(=O)P(=O)(O)O)ccc3[nH]2)C1 [Compound I-231, diammonium 2-[[(5S,8S,10aR)-3-acetyl-8-[[(2S)-4-carbamoyl-1-[2-fluoro-3-(3[[(2S)-1-[(2S,4R)-4-hydroxy-2-[[(1S)-1-[4-(4-methyl-1,3-thiazo1-5-yl)phenyl]ethyl]carbamoyl]pyrrolidin-1-yl]-3,3-dimethyl-1-oxobutan-2-yl]carbamoyl]propyl)phenoxy]butan-2-yl]carbamoyl]-6-oxo-octahydropyrrolo[1,2-a][1,5]diazocin-5-yl]carbamoyl]-1H-indole-5-carbonylphosphonate] | 10 to 100 nM | 
11 | CC(C)c1ccc(CNC(=O)[C@H](CCC(N)=O)NC(=O)[C@@H]2Cc3cc(CCCCCCc4ccc5c(c4)n(C)c(=O)n5C4CCC(=O)NC4=O)cc4c3N2C(=O)[C@@H](NC(=O)c2cc3cc(C(=O)P(=O)(O)O)ccc3[nH]2)CC4)cc1 (stereo partly drawn) [Compound I-232, 2-[[(2S,11S)-2-[[(1S)-3-carbamoyl-1-[[(4-isopropylphenyl)methyl]carbamoyl]propyl]carbamoyl]-6-[6-[1-(2,6-dioxopiperidin-3-yl)-3-methyl-2-oxo-1,3-benzodiazol-5-yl]hexyl]-12-oxo-1-azatricyclo[6.4.1.0^[4,13]]trideca-4(13),5,7-trien-11-yl]carbamoyl]-1H-indole-5-carbonylphosphonic acid] | 10 to 100 nM | 
12 | Cn1c(=O)n([C@@H]2CCC(=O)NC2=O)c2ccc(C[C@H]3CC[C@@H](CC(=O)N4CC[C@H]5CC[C@@H](C(=O)N[C@@H](CCC(N)=O)C(=O)NC(c6ccccc6)c6ccccc6)N5C(=O)[C@@H](NC(=O)c5cc6cc(C(=O)P(=O)(O)O)ccc6[nH]5)C4)CC3)cc21 [Compound I-234, (2-(((5S,8S,10aR)-8-(((S)-5-amino-1-(benzhydrylamino)-1,5-dioxopentan-2-yl)carbamoyl)-3-(2-((1S,4R)-4-((1-((R)-2,6-dioxopiperidin-3-yl)-3-methyl-2-oxo-2,3-dihydro-1H-benzo[d]imidazol-5-yl)methyl)cyclohexyl)acetyl)-6-oxodecahydropyrrolo[1,2-a][1,5]diazocin-5-yl)carbamoyl)-1H-indole-5-carbonyl)phosphonic acid] |  | 10 to 100 nM
